Test [1] relates to MCF7. Put plainly: Antiproliferative activity against human MCF7 cells assessed as reduction in cell viability incubated for 48 hrs by MTT assay. Conditions: MCF7, 48 h. A general note: Formazan colour is commonly taken as a measure of viable cells.
A short description of test [2]: Inhibition of NF-kappaB pathway in human MCF7 cells assessed as reduction in TNFalpha level by RT-PCR analysis.
Test [3] concerns MCF7. The test is described as follows: Anti-clonogenic activity in human MCF7 cells assessed as reduction of colony formation incubated for 2 weeks by crystal violet staining based assay. Conditions: MCF7, 336 h.
The target of test [4] is T1, Protein deacetylase HDAC6 (Homo sapiens, UniProt Q9UBN7).
T1 sequence (Q9UBN7 whole entry): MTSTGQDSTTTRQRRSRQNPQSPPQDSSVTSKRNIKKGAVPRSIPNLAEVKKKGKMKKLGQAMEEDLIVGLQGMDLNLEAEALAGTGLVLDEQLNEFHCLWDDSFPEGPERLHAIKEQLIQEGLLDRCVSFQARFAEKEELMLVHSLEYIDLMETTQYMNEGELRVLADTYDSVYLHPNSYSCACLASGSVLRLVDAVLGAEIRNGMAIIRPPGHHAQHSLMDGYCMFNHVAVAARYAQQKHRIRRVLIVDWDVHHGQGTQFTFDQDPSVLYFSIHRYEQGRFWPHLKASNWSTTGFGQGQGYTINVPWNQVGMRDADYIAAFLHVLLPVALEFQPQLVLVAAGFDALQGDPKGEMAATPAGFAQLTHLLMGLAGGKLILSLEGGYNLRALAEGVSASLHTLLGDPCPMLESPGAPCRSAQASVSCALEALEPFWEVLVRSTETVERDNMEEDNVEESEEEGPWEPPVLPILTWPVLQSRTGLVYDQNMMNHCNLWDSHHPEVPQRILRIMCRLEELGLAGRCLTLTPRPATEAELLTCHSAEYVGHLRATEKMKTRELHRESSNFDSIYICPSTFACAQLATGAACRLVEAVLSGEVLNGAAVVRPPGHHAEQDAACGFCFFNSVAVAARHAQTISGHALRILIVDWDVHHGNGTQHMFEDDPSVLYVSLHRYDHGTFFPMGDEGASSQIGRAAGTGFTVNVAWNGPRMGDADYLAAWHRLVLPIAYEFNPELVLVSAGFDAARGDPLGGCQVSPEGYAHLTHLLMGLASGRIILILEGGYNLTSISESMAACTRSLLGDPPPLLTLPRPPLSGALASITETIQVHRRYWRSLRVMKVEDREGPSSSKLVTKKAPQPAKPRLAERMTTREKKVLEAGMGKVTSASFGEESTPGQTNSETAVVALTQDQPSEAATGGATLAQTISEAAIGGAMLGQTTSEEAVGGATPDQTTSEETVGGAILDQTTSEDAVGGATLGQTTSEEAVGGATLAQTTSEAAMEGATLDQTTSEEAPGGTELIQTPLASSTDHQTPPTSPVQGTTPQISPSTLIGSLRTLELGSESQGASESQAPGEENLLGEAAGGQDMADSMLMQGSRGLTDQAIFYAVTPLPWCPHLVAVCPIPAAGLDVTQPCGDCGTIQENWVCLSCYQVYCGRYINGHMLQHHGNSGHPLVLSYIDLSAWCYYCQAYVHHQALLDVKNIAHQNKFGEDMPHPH
The test is described as follows: Inhibition of HDAC6 (unknown origin).

One may read the IC50 as the concentration needed to halve the response being measured. Consider `CCOC(=O)/C=C/C(=O)NCCOc1ccc(C(=O)c2c(-c3ccc(O)cc3)sc3cc(O)ccc23)cc1`, for which the figures for the IC50 (with MCF7 [1]; in test [2]; in the test with MCF7 [3]) were 0.5 µM, 4 µM and 2 µM, respectively.

In test [4], `CC/C(=C(\c1ccccc1)c1ccc(OCCN(C)Cc2ccc(NC(=O)CCCCCCC(=O)NO)cc2)cc1)c1ccccc1` returned a 50% inhibitory concentration (IC50) of 2.2 µM.

For the origin of these results see ChEMBL document CHEMBL5550117, “Dual-target inhibitors based on ERα: Novel therapeutic approaches for endocrine resistant breast cancer” (Eur J Med Chem, 2024).
